Where “and” joins values, the source holds several entries; their conditions need not be identical. Identical values can stand only once. Toxic doses and inconclusive results are not listed.
Test system: P388 leukemia ip, CD2F1 mice, survival T/C
Test: NCI In Vivo Anticancer Drug Screen. Data for tumor model P388 Leukemia (intraperitoneal) in CD2F1 (CDF1) mice
Settings: endpoint: median survival time, higher = longer survival
Summary of the method: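 Mice carrying the transplanted tumor received test compound or vehicle. Survival was recorded in each group, and the value is the treated-group measurement divided by that of the vehicle-treated control group.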

[1] = dose: 60.0 mg/kg/injection, schedule: Q01DX005 (ip), vehicle: saline with Tween-80
[2] = dose: 240.0 mg/kg/injection, schedule: Q01DX005 (ip), vehicle: saline with Tween-80
[3] = dose: 50.0 mg/kg/injection, schedule: Q01DX005 (ip), vehicle: Klucel (hydroxypropylcellulose) (HPC)
[4] = dose: 100.0 mg/kg/injection, schedule: Q01DX005 (ip), vehicle: Klucel (hydroxypropylcellulose) (HPC)
[5] = dose: 200.0 mg/kg/injection, schedule: Q01DX005 (ip), vehicle: Klucel (hydroxypropylcellulose) (HPC)
[6] = dose: 50.0 mg/kg/injection, schedule: Q01DX009 (ip), vehicle: Klucel (hydroxypropylcellulose) (HPC)

COc1cc2c(c(OC)c1OC)-c1cccc(=O)cc1C(NC(C)=O)CC2 (stereo not drawn)
T/C (dose: 1.25 mg/kg/injection, schedule: Q01DX009 (ip), vehicle: Klucel (hydroxypropylcellulose) (HPC)): 121 % of control
T/C (dose: 2.5 mg/kg/injection, schedule: Q01DX005 (ip), vehicle: saline): 100 % of control
T/C (dose: 5.0 mg/kg/injection, schedule: Q01DX005 (ip), vehicle: saline): 101 % of control
T/C (dose: 5.0 mg/kg/injection, schedule: Q01DX009 (ip), vehicle: Klucel (hydroxypropylcellulose) (HPC)): 150 % of control and 155 % of control
T/C (dose: 10.0 mg/kg/injection, schedule: Q01DX005 (ip), vehicle: saline): 104 % of control
T/C (dose: 10.0 mg/kg/injection, schedule: Q01DX009 (ip), vehicle: Klucel (hydroxypropylcellulose) (HPC)): 176 % of control and 179 % of control
T/C (dose: 20.0 mg/kg/injection, schedule: Q01DX005 (ip), vehicle: saline): 99 % of control
T/C (dose: 20.0 mg/kg/injection, schedule: Q01DX009 (ip), vehicle: Klucel (hydroxypropylcellulose) (HPC)): 233 % of control and 250 % of control
T/C (dose: 40.0 mg/kg/injection, schedule: Q01DX005 (ip), vehicle: saline): 104 % of control

O=S(=O)(c1ccc(F)cc1)N(CCCCCN(S(=O)(=O)c1ccc(F)cc1)S(=O)(=O)c1ccc(F)cc1)S(=O)(=O)c1ccc(F)cc1
T/C [1]: 97 % of control
T/C (dose: 120.0 mg/kg/injection, schedule: Q01DX005 (ip), vehicle: saline with Tween-80): 91 % of control
T/C [2]: 90 % of control

Cn1c(=O)oc2cc(NC(N)=O)c(Cl)cc21
T/C [3]: 94 % of control
T/C [4]: 90 % of control
T/C [5]: 86 % of control

O=c1c2ncccc2cc2n1CCc1c-2[nH]c2ccccc12
T/C (dose: 6.25 mg/kg/injection, schedule: Q01DX009 (ip), vehicle: saline with Tween-80): 88 % of control
T/C (dose: 12.5 mg/kg/injection, schedule: Q01DX009 (ip), vehicle: saline with Tween-80): 86 % of control

Cn1c(N)c(-n2[nH]c(=O)n(-c3ccccc3)c2=O)c(=O)n(C)c1=O
T/C [6]: 106 % of control
T/C (dose: 100.0 mg/kg/injection, schedule: Q01DX009 (ip), vehicle: Klucel (hydroxypropylcellulose) (HPC)): 95 % of control
T/C (dose: 200.0 mg/kg/injection, schedule: Q01DX009 (ip), vehicle: Klucel (hydroxypropylcellulose) (HPC)): 98 % of control

O=C(OC1(c2nccc3ccccc23)CCCCC1)c1ccccc1
T/C (dose: 25.0 mg/kg/injection, schedule: Q01DX009 (ip), vehicle: Klucel (hydroxypropylcellulose) (HPC)): 97 % of control
T/C [6]: 93 % of control
T/C (dose: 100.0 mg/kg/injection, schedule: Q01DX001 (ip), vehicle: Klucel (hydroxypropylcellulose) (HPC)): 103 % of control
T/C (dose: 200.0 mg/kg/injection, schedule: Q01DX001 (ip), vehicle: Klucel (hydroxypropylcellulose) (HPC)): 94 % of control
T/C (dose: 400.0 mg/kg/injection, schedule: Q01DX001 (ip), vehicle: Klucel (hydroxypropylcellulose) (HPC)): 92 % of control

Clc1ccc(CSc2nnc3c(n2)[nH]c2ccccc23)cc1
T/C [3]: 100 % of control
T/C [4]: 107 % of control
T/C [5]: 98 % of control

NC(N)=NOCC[C@@H](N)C(=O)O
T/C (dose: 50.0 mg/kg/injection, schedule: Q01DX005 (ip), vehicle: saline): 100 % of control
T/C (dose: 100.0 mg/kg/injection, schedule: Q01DX005 (ip), vehicle: saline): 99 % of control
T/C (dose: 200.0 mg/kg/injection, schedule: Q01DX005 (ip), vehicle: saline): 101 % of control
T/C (dose: 400.0 mg/kg/injection, schedule: Q01DX005 (ip), vehicle: saline): 91 % of control
T/C (dose: 1000.0 mg/kg/injection, schedule: Q01DX001 (ip), vehicle: saline): 95 % of control

CCOC(=O)C[N+](C)(C)C(C#N)C(C)c1ccccc1 (stereo not drawn)
T/C (dose: 60.0 mg/kg/injection, schedule: Q01DX005 (ip), vehicle: saline): 95 % of control
T/C (dose: 120.0 mg/kg/injection, schedule: Q01DX005 (ip), vehicle: saline): 95 % of control

CCCCCCCC[N+](C)(C)CC#CC[N+](C)(C)CCCCCCCC
T/C (dose: 6.25 mg/kg/injection, schedule: Q04DX003 (ip), vehicle: saline): 96 % of control
T/C (dose: 12.5 mg/kg/injection, schedule: Q04DX003 (ip), vehicle: saline): 103 % of control

CCOc1ccc(-n2cnc3c(=O)[nH]c(N)nc32)cc1
T/C (dose: 15.0 mg/kg/injection, schedule: Q01DX005 (ip), vehicle: saline with Tween-80): 90 % of control
T/C (dose: 30.0 mg/kg/injection, schedule: Q01DX005 (ip), vehicle: saline with Tween-80): 91 % of control
T/C [1]: 86 % of control and 90 % of control
T/C [2]: 102 % of control

CC1=C[C@@H]2c3cccc4c3c(cn4C)C[C@H]2N(C)C1
T/C (dose: 50.0 mg/kg/injection, schedule: Q01DX005 (ip), vehicle: saline with Tween-80): 99 % of control
T/C (dose: 100.0 mg/kg/injection, schedule: Q01DX005 (ip), vehicle: saline with Tween-80): 100 % of control

— PubChem BioAssay AID330 (DTP/NCI, 2004)
